Common to all, as to assay type: cell-based
Experiment [1] has as its system Rhodococcus erythropolis strain JCM 3201. Description: Minimum growth inhibition concentration on LB agar medium, strain JCM 3201. The following applies: strain JCM 3201 (wild type), 30° C., 2 days. An excerpt: (§1) A microorganism of the genus Rhodococcus according to the present invention is a mutant microorganism of the genus Rhodococcus, which has a higher sensitivity to lysozyme than a wild-type microorganism of the genus Rhodococcus. The microorganism of the genus Rhodococcus is not limited to a specific species and includes Rhodococcus erythropolis, Rhodococcus fascians, and Rhodococcus opacus. The wild-type microorganism of the genus Rhodococcus refers to a microorganism belonging to the genus Rhodococcus and having no genetic mutation, for example, Rhodococcus erythropolis strain JCM 3201. More specifically, the microorganism of the genus Rhodococcus according to the present invention having a higher sensitivity to lysozyme is a mutant derived from a wild-type microorganism of the genus Rhodococcus as a parent strain, and having an increased sensitivity to lysozyme compared to the parent strain. The phrase “having an increased sensitivity to lysozyme” means that cell lysis may occur at a low lysozyme concentration. […] Alternatively, the degree of sensitivity to lysozyme can be determined by adding lysozyme to a predetermined concentration of a microorganism of the genus Rhodococcus, and monitoring a change in absorbence while culturing. […]

For experiment [2], the system named is Rhodococcus erythropolis strain L-88. Description: Minimum growth inhibition concentration on LB agar medium, strain L-88. The following applies: 30° C., 2 days.
Description: as §1

The subject of experiment [3] is Rhodococcus erythropolis strain L-65. Description: Minimum growth inhibition concentration on LB agar medium, strain L-65. Conditions: 30° C., 2 days.
Description: as §1

For experiment [4], the system named is Rhodococcus erythropolis wild type and mutant strain. In words: Comparison of wild type and mutant strain for sensitivity to antibiotics. The following applies: determined similarly to the ampicillin test. As for the experimental part: The sensitivity of Rhodococcus erythropolis strain L-65 and L-88 to ampicillin was determined in the same manner as in Example 1. To explain more specifically, the bacterial cells of each strain were inoculated in LB medium and cultured with shaking at 30° C. A part of the culture solution was taken in the middle of logarithmic growth period and diluted with fresh LB medium so as to contain 1×10^5, 1×10^4, 1×10^3, 1×10^2, and […] cells in 10 μl of the LB medium. The diluted culture solutions thus prepared were dropped onto each of LB agar mediums containing lysozyme in concentrations of 15, 10, 1, and 0.1 μg/ml. After the mediums were cultured at 30° C. for 2 days and the presence or absence of bacterial cells grown on the mediums was checked. In this manner, the minimum growth inhibition concentration was determined (Table 2).

For experiment [5], the system named is Rhodococcus erythropolis strain JCM 3201. Description: Cell lysis with lysozyme for extraction of recombinant PIP protein, strain JCM 3201. The following applies: lysozyme 1 mg/ml, 37° C., one hour.
The test system of experiment [6] is Rhodococcus erythropolis strain L-88. In words: Cell lysis with lysozyme for extraction of recombinant PIP protein, strain L-88. Conditions: lysozyme 1 mg/ml, 37° C., one hour, nondenaturation buffer.
Experiment [7] shares this test system. Description: Turbidity change of culture solution by addition of lysozyme, strain L-88. The following applies: lysozyme 12.5 μg/ml added at OD600 about 0.2, LB medium, 30° C. As for the experimental part:
(§2) To 100 ml of LB medium, Rhodococcus erythropolis strain L-65 was inoculated and cultured with shaking at 30° C. The absorbence (OD600) of the culture solution was measured at an absorption wavelength of 600 nm every hour from the beginning of the logarithmic growth period. When OD600 reached about 0.2, the volume of the culture solution was divided into halves. To one of them, lysozyme was added to a final concentration of 12.5 μg/ml. No lysozyme was added to the other. While both solutions were further cultured continuously, the absorbence was measured. The growth profiles of Rhodococcus erythropolis strain L-65 culture solutions with Lysozyme (12.5 μg/ml) and without lysozyme were shown by absorbence at 600 nm. When OD600 reached about 0.2, lysozyme was added (Indicated by the arrow in the figure). […] This is considered because bacterial cell lysis was caused by lysozyme.
The same operation as in Example 2 was performed by use of Rhodococcus erythropolis strain L-88. The growth profiles of culture solutions of Rhodococcus erythropolis strain L-88 with lysozyme (12.5 μg/ml) and without lysozyme were shown by absorbence at 600 nm. When OD600 reached about 0.2, lysozyme was added (Indicated by the arrow in the figure). […] This is considered because bacterial cell lysis was caused by lysozyme.

Experiment [8] relates to Rhodococcus erythropolis strain L-65. Description: Turbidity change of culture solution by addition of lysozyme, strain L-65. Conditions: lysozyme 12.5 μg/ml added at OD600 about 0.2, LB medium, 30° C. As for the experimental part:
as §2

The test system is the same in experiment [9]. Description: Cell lysis with lysozyme for extraction of recombinant PIP protein, strain L-65. The following applies: lysozyme 1 mg/ml, 37° C., one hour, nondenaturation buffer. The text has this:
A plasmid (pHN170, Nakashima and Tamura: the full length sequence is represented by SEQ ID No: 2) was constructed such that it could self-replicate in a bacterial cell of Rhodococcus erythropolis and could be induced by thiostreptone to express a proline iminopeptidase (hereinafter referred to as “PIP”) protein (T. Tamura et al., FEBS Lett. 398, 101-105 (1996)) having a 6× histidine tag at the C terminal. This plasmid was introduced into Rhodococcus erythropolis strain L-65 by an electroporation method. Transformants were screened on LB agar medium containing tetracycline (20 μg/ml). The transformants were inoculated on 4 ml of LB medium containing tetracycline (8 μg/ml) and cultured with shaking at 30° C. until the absorbence at an absorption wavelength of 600 nm reached 0.8. The entire culture solution was added to 40 ml of LB medium containing thiostreptone (1 μg/ml) and cultured with rotation in a vaned flask for 16 hours. After PIP protein was induced to express, bacterial cells were centrifugally collected at 1,500×g for 15 minutes. […] As a result, a clear band was detected near the molecular weight (34.3 KDa), which was predicted from the amino acid sequence of the 6× histidine-fused PIP protein (FIG. 5). […]

For experiment [10], the system named is Rhodococcus erythropolis strain JCM 3201. Description: Turbidity change of culture solution by addition of lysozyme, strain JCM 3201. The following applies: lysozyme 12.5 μg/ml added at OD600 about 0.2, LB medium, 30° C. As for the experimental part:
as §2
The same operation as in Example 2 was performed by use of Rhodococcus erythropolis strain JCM 3201. The growth profiles of culture solutions of Rhodococcus erythropolis strain JCM 3201 with lysozyme (12.5 μg/ml) and without lysozyme were shown by absorbence at 600 nm. When OD600 reached about 0.2, lysozyme was added (Indicated by the arrow in the figure).

Take `CC1(C)S[C@@H]2[C@H](NC(=O)[C@H](N)c3ccccc3)C(=O)N2[C@H]1C(=O)O` [ampicillin, reference compound]: the entries for the “Minimum growth-inhibiting ampicillin concentration” value in experiment [1], in [2] and in experiment [3] were 15 µg/mL, 1 µg/mL and 1 µg/mL, respectively.
Take `O=C(N[C@H](CO)[C@H](O)c1ccc([N+](=O)[O-])cc1)C(Cl)Cl` [chloramphenicol]: the “Difference in sensitivity between wild type and mutant strain” value in experiment [4] is on record as “no significant difference was observed”.
With “lysozyme: lysozyme derived from egg-white (manufactured by Sigma), cell-wall lytic enzyme”, the “Minimum growth-inhibiting lysozyme concentration” value in experiment [1] was over 400 µg/mL; in experiment [2], 12.5 µg/mL. Also, the “Cell lysis by lysozyme treatment (PIP band in supernatant, SDS polyacrylamide gel electrophoresis)” value in experiment [5] (strain JCM 3201, nondenaturation buffer, no ampicillin) is recorded as “cell lysis rarely takes place”; in [5] (strain JCM 3201 treated with ampicillin 600 μg/ml for 2 hours before cell collection), “cell lysis takes place even in nondenaturation conditions”; in experiment [6], “The same phenomenon as in the case of bacterial stain L-65 is considered”; in [9] it was “Cells were lysed completely”. Moreover, the “Change of absorbence (OD600) of culture solution after addition of lysozyme” value in experiment [7] is “a sharp decrease in absorbence was observed”; in [8], “a sharp decrease in absorbence was observed”; in [10], “the same tendency of growth was observed”.
thiostreptone: the “Difference in sensitivity between wild type and mutant strain” value in experiment [4] was “no significant difference was observed”.

(Values after US7354754B2, “Microorganism sensitive to lysozyme” (National Institute of Advanced Industrial Science and …, priority 2002, dated 2008).)
